Data as given in US12146155B2, “Method for constructing human pluripotent stem cell-derived liver organoid having enhanced drug metabolic potential and liver organoid constructed by same method” (KOREA RESEARCH INSTITUTE OF CHEMICAL TECHNOLOGY, priority 2021, dated 2024).

Tests used:
[1] = tested on: HepG2; assay: Fimasartan metabolite formation (LC-MS/MS); type: in vitro ADME, human; settings: 50 μM FMS for 24 hours
Method: 70 μ ? of medium was collected at 3, 6, 12 and 24 hours, respectively, and the reaction was quenched by adding 70 μ ? of ice-cold ACN containing 100 nM BR-A-563 as an internal standard. The samples were centrifuged at 16,000 g for 10 minutes at 4° C. and the supernatant was applied to liquid chromatography-tandem mass spectrometry (LC-MS/MS). Data were normalized to protein concentration.

[2] = tested on: hiPSC-derived cardiomyocytes (hiPSC-CMs) co-cultured with FC-treated S(−)-HO
Method: (§1) Specifically, the electrical activity of Cardiosight®-S (NEXEL Co., South Korea), the hiPSC-CM, was measured using an MEA system (Axion BioSystems, Maestro, US) at 37° C. and perfused with 5% CO2, 20% O2, and 75% N2. The hiPSC-CMs were first seeded in a 12-well MEA plate at the density of 4×10^4 cells per well and maintained for 7 days in a cardiomyocyte culture medium provided by NEXEL Co. to stabilize with half-mid changes performed every 2 days. One week later, the culture medium was replaced with a liver organoid differentiation medium (DM). Transwell inserts (Corning) were then placed in each well, and FC-treated S(−)-HO was seeded in the inserts, followed by culture for 3 days. On the day of compound application, the culture medium was completely removed from the wells and inserts and fresh medium was added to ensure the correct volume per well (2 m ? /well total). Cells were allowed to equilibrate for 4 hours, and online parameters were monitored to ensure a stable baseline for at least 40 minutes. The cells were exposed to cyclophosphamide at a single dose per well. After application of the drug or control (0.1% DMSO), field potentials were measured every 5 minutes for 30 seconds for 72 hours. The field potential signals were recorded and analyzed using Axion BioSystems' integrated studio (AxIS) software to measure the beating frequency and field potential duration. […]

[3] = tested on: HepG2 and 2D HLC; assay: Acetaminophen metabolite formation (LC-MS/MS); type: in vitro ADME, human; settings: 10 mM APAP
Method: Specifically, to measure the metabolites of APAP, reactions were performed in PHH, D-HO, S-HO, HepG2, and 2D HLC treated with 10 mM APAP for 24 hours at 37° C. in 5% CO2. APAP was treated to a final volume of 0.7 m ? per well in each 24-well culture plate. 70 μ ? of medium was collected at 3, 6, 12 and 24 hours, respectively, and the reaction was quenched by adding 70 μ ? of ice-cold ACN containing 100 nM BR-A-563 as an internal standard. The samples were centrifuged at 16,000 g for 10 minutes at 4° C. and the supernatant was applied to liquid chromatography-tandem mass spectrometry (LC-MS/MS). Data were normalized to protein concentration.

[4] = biological target: T1, MRP2 (Homo sapiens, UniProt Q92887); assay: CDFDA staining of liver organoids with or without transporter inhibitor; type: cell-based; settings: 2 mM probenecid for 3 hours; D(−)-HO and S(−)-HO
T1 construct: endogenous in cells; host or cells: human iPSC-derived liver organoids (D(−)-HO, S(−)-HO)
T1 sequence (Q92887 whole entry): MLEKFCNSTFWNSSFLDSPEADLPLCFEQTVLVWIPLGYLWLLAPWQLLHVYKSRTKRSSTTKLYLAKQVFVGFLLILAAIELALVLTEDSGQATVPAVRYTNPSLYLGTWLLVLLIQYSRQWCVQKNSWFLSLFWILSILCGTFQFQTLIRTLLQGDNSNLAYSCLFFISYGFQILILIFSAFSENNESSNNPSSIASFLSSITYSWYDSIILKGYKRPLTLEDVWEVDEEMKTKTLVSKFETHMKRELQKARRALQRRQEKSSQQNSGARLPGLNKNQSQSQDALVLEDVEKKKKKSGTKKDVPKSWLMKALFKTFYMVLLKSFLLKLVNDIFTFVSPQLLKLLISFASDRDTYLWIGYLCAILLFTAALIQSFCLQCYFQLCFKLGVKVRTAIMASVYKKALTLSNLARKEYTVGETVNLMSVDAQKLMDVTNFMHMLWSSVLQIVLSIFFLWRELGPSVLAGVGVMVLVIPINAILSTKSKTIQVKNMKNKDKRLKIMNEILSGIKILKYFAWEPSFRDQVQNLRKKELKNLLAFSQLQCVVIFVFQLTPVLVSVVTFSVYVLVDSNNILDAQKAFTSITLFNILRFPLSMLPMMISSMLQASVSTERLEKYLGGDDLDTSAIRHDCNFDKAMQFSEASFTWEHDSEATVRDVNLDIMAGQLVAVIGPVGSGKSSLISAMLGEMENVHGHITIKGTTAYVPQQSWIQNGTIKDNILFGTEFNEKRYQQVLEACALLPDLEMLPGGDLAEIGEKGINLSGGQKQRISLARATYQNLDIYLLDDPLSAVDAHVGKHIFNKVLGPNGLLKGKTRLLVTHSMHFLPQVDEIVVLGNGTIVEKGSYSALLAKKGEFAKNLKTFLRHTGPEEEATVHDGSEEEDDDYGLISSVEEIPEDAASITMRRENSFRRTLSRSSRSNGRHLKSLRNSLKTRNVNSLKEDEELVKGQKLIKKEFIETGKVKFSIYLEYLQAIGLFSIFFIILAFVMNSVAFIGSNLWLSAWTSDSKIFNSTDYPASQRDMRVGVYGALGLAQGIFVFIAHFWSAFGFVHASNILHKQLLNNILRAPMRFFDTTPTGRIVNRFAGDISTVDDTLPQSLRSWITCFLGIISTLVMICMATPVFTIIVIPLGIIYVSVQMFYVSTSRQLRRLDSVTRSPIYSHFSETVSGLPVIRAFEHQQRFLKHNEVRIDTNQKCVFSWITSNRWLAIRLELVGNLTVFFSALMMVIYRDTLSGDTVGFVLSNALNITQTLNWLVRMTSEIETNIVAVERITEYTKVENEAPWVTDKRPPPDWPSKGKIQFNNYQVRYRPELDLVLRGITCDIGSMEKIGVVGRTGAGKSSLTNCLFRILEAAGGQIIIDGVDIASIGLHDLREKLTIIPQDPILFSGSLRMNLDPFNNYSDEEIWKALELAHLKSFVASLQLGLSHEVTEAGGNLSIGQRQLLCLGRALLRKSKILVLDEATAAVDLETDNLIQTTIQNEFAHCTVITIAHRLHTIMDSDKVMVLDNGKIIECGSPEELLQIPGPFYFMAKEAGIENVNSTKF
Method: Specifically, the liver organoids were recovered on Matrigel and washed three times with DPBS. For CDFDA (5(6)-carboxy-2′,7′-dichlorofluorescein diacetate) staining, the liver organoids treated with or without 2 mM probenecid for 3 hours were stained with 10 μM CDFDA (Sigma-Aldrich) for 15 minutes at 37° C., 5% CO2. […] All samples were washed three times with DPBS, stained with Hoechst 33342, and observed under an Olympus FV3000 confocal microscope.

[5] = tested on: hiPSC-CM not cultured with liver organoids; assay: MEA electrophysiology of hiPSC-CMs without liver organoids; type: cell-based, human
Method: as §1

## CCCCc1nc(C)c(CC(=S)N(C)C)c(=O)n1Cc1ccc(-c2ccccc2-c2nnn[nH]2)cc1 [FMS, Fimasartan]
[1]
  production of BR-A-535, a 3-step metabolite of FMS by CYP3A4: not observed

## O=P1(N(CCCl)CCCl)NCCCO1 (stereo not drawn) [CP, Cyclophosphamide]
[2]; 250 μM, after 24 and 72 hours
  field potential duration corrected by beating frequency (FPDcF): increased
[2]; 250 and 500 μM for 24 and 72 hours, compared to hiPSC-CM alone
  beating rate: significantly reduced

## CC(=O)Nc1ccc(O)cc1 [acetaminophen, Acetaminophen]
[3]
  APAP-GSH amount of metabolites: no metabolites were detected

## CCCN(CCC)S(=O)(=O)c1ccc(C(=O)O)cc1 [probenecid]
[4]
  MRP2-specific fluorescence (CDFDA) when transporter blocked: accumulated in the lumen of the liver organoids

## CC(C)(C)c1ccc(C(O)CCCN2CCC(C(O)(c3ccccc3)c3ccccc3)CC2)cc1 (stereo not drawn) [terfenadine, Terfenadine]
[5]
  time to spontaneous beating cessation after addition: ≤ 30 min
